{
  "source": "paper PMC4979471",
  "about": "(Cell Death Discovery, 2015)",
  "experiment_in_all_cases": "Kinase selectivity, P33-radiolabeled assay",
  "assay_type_in_all_cases": "biochemical",
  "conditions_in_all_cases": "10 μM ATP",
  "key": {"[1]": {"target": "T1, FGFR4 (Homo sapiens, UniProt P22455)", "T1 construct": "purchased Reaction Biology Corp", "T1 sequence (P22455 22-802)": "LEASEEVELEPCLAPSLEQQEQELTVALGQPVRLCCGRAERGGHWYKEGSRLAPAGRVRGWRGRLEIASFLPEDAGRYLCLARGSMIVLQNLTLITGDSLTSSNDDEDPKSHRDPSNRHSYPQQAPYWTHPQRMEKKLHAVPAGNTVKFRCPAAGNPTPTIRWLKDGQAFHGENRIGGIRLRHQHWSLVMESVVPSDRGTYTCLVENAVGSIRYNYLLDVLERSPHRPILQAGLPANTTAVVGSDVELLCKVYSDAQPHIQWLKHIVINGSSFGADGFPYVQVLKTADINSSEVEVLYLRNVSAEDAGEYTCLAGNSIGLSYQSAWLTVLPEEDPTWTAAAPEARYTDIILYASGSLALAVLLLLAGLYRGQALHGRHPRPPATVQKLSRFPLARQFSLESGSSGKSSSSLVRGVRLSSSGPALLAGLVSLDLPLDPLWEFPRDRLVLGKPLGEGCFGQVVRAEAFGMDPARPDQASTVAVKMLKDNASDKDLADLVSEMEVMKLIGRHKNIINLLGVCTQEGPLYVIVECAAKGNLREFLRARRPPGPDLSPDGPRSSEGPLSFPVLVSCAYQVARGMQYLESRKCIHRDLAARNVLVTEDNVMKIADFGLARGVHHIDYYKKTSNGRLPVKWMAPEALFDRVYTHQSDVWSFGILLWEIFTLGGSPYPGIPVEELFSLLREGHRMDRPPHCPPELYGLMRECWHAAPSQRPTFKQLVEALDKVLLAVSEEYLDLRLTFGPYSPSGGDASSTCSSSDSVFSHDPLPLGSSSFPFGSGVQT", "how_it_was_run": "(§1)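 Activity relative to DMSO controls (%) was measured for compound at 10 μM. Assays ran at 10 μM ATP, in duplicate.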"}, "[2]": {"target": "T2, SGK3/SGKL (Homo sapiens, UniProt Q96BR1)", "T2 construct": "purchased Reaction Biology Corp", "T2 sequence (Q96BR1 1-496)": "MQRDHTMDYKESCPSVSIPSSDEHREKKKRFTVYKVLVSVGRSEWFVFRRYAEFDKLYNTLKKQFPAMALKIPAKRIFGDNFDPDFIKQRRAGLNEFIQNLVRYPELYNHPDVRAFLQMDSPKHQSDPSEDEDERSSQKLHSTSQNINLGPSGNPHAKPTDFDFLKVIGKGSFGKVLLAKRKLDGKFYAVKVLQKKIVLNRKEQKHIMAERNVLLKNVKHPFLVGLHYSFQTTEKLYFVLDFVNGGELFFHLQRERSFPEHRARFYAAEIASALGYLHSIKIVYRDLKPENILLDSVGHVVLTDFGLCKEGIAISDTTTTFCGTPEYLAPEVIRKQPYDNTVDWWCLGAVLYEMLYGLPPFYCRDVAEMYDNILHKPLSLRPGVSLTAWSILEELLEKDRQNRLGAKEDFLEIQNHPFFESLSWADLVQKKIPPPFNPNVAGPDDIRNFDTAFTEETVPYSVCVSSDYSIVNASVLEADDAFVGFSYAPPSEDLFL", "how_it_was_run": "as §1"}, "[3]": {"target": "T3, EPHB2 (Homo sapiens, UniProt P29323)", "T3 construct": "purchased Reaction Biology Corp", "T3 sequence (P29323 19-1055)": "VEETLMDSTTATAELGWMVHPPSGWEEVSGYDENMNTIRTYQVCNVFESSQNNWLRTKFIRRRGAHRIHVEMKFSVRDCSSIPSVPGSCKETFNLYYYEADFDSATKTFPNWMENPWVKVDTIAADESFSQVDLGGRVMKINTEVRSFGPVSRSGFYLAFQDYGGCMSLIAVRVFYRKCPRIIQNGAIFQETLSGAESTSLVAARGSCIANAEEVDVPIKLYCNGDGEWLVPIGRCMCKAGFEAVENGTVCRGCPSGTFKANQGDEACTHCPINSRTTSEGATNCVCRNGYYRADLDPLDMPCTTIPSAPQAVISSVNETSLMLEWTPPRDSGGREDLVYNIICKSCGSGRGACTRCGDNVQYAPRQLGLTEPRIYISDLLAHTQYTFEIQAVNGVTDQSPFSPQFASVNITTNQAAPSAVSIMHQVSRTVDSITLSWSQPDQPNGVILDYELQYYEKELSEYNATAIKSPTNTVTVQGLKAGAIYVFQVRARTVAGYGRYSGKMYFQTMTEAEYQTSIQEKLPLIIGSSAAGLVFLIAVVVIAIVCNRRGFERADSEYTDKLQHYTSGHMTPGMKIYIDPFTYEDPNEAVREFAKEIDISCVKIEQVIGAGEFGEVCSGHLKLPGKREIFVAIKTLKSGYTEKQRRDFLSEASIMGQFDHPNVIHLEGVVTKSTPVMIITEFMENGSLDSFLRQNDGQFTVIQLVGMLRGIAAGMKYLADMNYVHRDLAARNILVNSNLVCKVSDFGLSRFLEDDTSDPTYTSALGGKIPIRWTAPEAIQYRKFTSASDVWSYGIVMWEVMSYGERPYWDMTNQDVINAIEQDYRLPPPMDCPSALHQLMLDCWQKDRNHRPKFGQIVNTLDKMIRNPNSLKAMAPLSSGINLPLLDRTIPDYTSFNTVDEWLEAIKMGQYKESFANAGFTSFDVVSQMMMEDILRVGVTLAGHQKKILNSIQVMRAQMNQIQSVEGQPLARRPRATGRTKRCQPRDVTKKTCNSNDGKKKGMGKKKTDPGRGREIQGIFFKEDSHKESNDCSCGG", "how_it_was_run": "as §1"}, "[4]": {"target": "T4, CDK9/cyclin T1 (Homo sapiens, UniProt P50750)", "T4 construct": "purchased Reaction Biology Corp", "T4 sequence (P50750 whole entry)": "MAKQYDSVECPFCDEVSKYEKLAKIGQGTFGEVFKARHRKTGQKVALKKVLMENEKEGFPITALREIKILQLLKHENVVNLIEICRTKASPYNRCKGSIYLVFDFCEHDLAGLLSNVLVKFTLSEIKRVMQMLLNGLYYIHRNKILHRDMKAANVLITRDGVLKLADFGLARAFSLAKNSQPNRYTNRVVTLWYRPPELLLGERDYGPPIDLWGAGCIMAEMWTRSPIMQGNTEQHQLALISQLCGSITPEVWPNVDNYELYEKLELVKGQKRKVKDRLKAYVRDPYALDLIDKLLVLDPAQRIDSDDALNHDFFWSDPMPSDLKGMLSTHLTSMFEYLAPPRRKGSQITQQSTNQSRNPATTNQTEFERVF", "T4 sequence (O60563 whole entry partner)": "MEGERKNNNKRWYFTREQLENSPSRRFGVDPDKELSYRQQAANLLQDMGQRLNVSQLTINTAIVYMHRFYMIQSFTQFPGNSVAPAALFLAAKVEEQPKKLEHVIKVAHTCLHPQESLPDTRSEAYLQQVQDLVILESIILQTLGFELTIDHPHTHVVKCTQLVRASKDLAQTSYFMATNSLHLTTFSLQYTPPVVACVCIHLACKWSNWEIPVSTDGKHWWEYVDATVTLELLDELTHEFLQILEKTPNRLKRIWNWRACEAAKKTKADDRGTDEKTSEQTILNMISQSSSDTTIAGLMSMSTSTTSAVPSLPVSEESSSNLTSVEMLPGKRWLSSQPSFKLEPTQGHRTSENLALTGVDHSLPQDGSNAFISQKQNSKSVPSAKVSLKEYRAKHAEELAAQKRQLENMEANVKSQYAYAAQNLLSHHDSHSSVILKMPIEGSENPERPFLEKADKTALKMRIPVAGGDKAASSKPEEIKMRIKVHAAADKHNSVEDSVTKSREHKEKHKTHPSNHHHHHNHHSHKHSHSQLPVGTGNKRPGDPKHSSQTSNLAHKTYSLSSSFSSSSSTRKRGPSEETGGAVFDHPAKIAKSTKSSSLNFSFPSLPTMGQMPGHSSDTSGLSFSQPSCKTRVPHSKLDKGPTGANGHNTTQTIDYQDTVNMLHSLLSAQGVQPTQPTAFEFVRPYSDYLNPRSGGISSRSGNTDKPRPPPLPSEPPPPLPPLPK", "how_it_was_run": "as §1"}, "[5]": {"target": "T5, LRRK2 (Homo sapiens, UniProt Q5S007)", "T5 construct": "purchased Reaction Biology Corp", "how_it_was_run": "as §1"}, "[6]": {"target": "T6, PAK1 (Homo sapiens, UniProt Q13153)", "T6 construct": "purchased Reaction Biology Corp", "T6 sequence (Q13153 whole entry)": "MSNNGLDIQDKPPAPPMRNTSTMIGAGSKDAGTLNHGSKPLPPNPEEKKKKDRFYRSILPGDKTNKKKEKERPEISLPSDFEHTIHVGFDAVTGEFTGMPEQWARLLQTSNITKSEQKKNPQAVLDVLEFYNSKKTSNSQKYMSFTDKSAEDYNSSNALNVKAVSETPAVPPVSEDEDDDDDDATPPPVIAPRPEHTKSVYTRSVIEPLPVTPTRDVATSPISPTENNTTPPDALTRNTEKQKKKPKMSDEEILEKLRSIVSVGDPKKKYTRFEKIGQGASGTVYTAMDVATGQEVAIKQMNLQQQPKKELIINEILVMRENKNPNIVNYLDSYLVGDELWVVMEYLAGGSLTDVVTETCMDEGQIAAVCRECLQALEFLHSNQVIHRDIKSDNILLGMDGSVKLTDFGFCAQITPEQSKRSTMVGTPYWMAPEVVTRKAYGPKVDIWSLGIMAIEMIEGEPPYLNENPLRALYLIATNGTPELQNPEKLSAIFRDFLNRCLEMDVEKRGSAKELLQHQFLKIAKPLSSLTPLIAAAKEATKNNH", "how_it_was_run": "as §1"}, "[7]": {"target": "T7, JAK2 (Homo sapiens, UniProt O60674)", "T7 construct": "purchased Reaction Biology Corp", "T7 sequence (O60674 whole entry)": "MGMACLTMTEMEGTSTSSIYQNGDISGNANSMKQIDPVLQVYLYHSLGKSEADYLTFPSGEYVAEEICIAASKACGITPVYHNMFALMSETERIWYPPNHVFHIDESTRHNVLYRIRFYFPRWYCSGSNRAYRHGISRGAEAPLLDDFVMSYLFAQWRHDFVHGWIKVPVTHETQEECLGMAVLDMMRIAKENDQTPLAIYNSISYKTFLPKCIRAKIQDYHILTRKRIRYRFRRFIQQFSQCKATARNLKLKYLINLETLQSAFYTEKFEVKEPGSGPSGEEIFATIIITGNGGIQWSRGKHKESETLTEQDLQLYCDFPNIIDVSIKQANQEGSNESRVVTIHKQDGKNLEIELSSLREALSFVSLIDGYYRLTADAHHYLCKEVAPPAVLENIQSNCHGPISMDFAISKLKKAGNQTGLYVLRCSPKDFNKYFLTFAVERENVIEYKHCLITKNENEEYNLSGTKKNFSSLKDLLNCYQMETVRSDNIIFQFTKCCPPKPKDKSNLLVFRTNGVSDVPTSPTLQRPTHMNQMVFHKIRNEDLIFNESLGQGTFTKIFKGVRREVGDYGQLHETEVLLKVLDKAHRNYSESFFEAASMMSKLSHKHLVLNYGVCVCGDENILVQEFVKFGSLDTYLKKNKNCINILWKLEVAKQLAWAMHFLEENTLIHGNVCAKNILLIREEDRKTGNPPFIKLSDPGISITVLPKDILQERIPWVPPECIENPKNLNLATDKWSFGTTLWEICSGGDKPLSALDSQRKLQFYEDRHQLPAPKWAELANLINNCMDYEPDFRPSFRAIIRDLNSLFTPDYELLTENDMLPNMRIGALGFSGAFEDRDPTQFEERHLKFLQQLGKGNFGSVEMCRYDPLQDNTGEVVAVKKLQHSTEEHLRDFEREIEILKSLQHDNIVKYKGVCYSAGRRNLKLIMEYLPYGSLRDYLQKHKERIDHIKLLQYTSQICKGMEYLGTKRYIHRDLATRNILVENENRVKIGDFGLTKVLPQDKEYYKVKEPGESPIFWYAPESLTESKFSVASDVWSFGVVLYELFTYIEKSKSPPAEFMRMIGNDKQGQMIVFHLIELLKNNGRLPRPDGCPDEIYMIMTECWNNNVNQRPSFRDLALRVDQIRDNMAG", "how_it_was_run": "as §1"}, "[8]": {"target": "T8, MEKK2 (Homo sapiens, UniProt Q9Y2U5)", "T8 construct": "purchased Reaction Biology Corp", "T8 sequence (Q9Y2U5 1-619)": "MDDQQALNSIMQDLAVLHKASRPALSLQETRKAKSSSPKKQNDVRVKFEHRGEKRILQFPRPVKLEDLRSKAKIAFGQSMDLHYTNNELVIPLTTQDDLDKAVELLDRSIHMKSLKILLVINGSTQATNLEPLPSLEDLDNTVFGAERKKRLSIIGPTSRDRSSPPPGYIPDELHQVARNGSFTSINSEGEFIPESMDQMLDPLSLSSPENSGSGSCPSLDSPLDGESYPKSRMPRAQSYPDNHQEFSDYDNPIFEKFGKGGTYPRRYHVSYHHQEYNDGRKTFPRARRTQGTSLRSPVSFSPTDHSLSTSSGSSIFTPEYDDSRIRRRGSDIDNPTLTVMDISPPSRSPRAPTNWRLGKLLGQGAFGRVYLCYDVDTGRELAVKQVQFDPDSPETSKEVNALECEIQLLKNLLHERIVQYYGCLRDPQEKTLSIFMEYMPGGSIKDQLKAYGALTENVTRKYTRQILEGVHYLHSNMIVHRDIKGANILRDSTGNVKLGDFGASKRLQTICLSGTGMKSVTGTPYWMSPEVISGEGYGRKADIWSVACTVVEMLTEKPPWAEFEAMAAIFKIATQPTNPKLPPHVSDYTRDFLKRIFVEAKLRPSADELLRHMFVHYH", "how_it_was_run": "as §1"}, "[9]": {"target": "T9, MST3/STK24 (Homo sapiens, UniProt Q9Y6E0)", "T9 construct": "purchased Reaction Biology Corp", "T9 sequence (Q9Y6E0 whole entry)": "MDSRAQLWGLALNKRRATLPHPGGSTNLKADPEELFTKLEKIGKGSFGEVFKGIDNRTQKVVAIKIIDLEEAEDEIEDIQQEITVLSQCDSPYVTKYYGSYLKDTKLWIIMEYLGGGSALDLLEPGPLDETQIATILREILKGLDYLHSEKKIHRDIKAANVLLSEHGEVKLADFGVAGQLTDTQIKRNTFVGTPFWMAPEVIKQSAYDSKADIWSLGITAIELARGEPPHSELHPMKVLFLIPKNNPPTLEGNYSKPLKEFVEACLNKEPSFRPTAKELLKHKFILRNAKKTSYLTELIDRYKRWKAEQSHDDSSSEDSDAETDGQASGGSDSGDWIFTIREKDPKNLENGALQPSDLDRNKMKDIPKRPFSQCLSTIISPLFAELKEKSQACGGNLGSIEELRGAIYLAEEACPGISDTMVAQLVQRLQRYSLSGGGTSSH", "how_it_was_run": "as §1"}, "[10]": {"conditions": "read-out: % Enzyme Activity (relative to DMSO controls) AVG"}, "[11]": {"conditions": "read-out: % Enzyme Activity (relative to DMSO controls) Data 1"}, "[12]": {"conditions": "read-out: % Enzyme Activity (relative to DMSO controls) Data 2"}},
  "note": "Like-named read-outs stand apart in the source and are kept apart here.",
  "data": [
    {"smiles": "CC(C)(C)C(=O)N1N=CC[C@H]1c1ccccc1", "note": "[GSK′963]", "values": [
      {"measurement": "remaining activity at 10 µM", "setting": "[1]; [10]", "value": 93.5, "unit": "%"},
      {"measurement": "remaining activity at 10 µM", "setting": "[1]; [11]", "value": 91.5, "unit": "%"},
      {"measurement": "remaining activity at 10 µM", "setting": "[1]; [12]", "value": 95.6, "unit": "%"},
      {"measurement": "remaining activity at 10 µM", "setting": "[2]; [10]", "value": 107, "unit": "%"},
      {"measurement": "remaining activity at 10 µM", "setting": "[2]; [11]", "value": 104, "unit": "%"},
      {"measurement": "remaining activity at 10 µM", "setting": "[2]; [12]", "value": 110, "unit": "%"},
      {"measurement": "remaining activity at 10 µM", "setting": "[3]; [10]", "value": 105, "unit": "%"},
      {"measurement": "remaining activity at 10 µM", "setting": "[3]; [11]", "value": 108, "unit": "%"},
      {"measurement": "remaining activity at 10 µM", "setting": "[3]; [12]", "value": 102, "unit": "%"},
      {"measurement": "remaining activity at 10 µM", "setting": "[4]; [10]", "value": 108, "unit": "%"},
      {"measurement": "remaining activity at 10 µM", "setting": "[4]; [11]", "value": 112, "unit": "%"},
      {"measurement": "remaining activity at 10 µM", "setting": "[4]; [12]", "value": 105, "unit": "%"},
      {"measurement": "remaining activity at 10 µM", "setting": "[5]; [10]", "value": 99.5, "unit": "%"},
      {"measurement": "remaining activity at 10 µM", "setting": "[5]; [11]", "value": 102, "unit": "%"},
      {"measurement": "remaining activity at 10 µM", "setting": "[5]; [12]", "value": 97.1, "unit": "%"},
      {"measurement": "remaining activity at 10 µM", "setting": "[6]; [10]", "value": 92.8, "unit": "%"},
      {"measurement": "remaining activity at 10 µM", "setting": "[6]; [11]", "value": 92.5, "unit": "%"},
      {"measurement": "remaining activity at 10 µM", "setting": "[6]; [12]", "value": 93, "unit": "%"},
      {"measurement": "remaining activity at 10 µM", "setting": "[7]; [10]", "value": 105, "unit": "%"},
      {"measurement": "remaining activity at 10 µM", "setting": "[7]; [11]", "value": 105, "unit": "%"},
      {"measurement": "remaining activity at 10 µM", "setting": "[7]; [12]", "value": 105, "unit": "%"},
      {"measurement": "remaining activity at 10 µM", "setting": "[8]; [10]", "value": 114, "unit": "%"},
      {"measurement": "remaining activity at 10 µM", "setting": "[8]; [11]", "value": 114, "unit": "%"},
      {"measurement": "remaining activity at 10 µM", "setting": "[8]; [12]", "value": 115, "unit": "%"},
      {"measurement": "remaining activity at 10 µM", "setting": "[9]; [10]", "value": 87.4, "unit": "%"},
      {"measurement": "remaining activity at 10 µM", "setting": "[9]; [11]", "value": 87.3, "unit": "%"},
      {"measurement": "remaining activity at 10 µM", "setting": "[9]; [12]", "value": 87.5, "unit": "%"}
    ]}
  ]
}
